Experimental data: the supplement of paper PMC10307832

Legend:
Assay in all cases: relative viability (nuclei count vs DMSO), 5 days (fraction); higher = more cells survive
[1] = compound: CC1=CC=C(C=C1)C(=O)CN2C3=C(CCCC3)SC2=N [Pifithrin_alpha] + Cc1cc(Nc2cc(N3CCN(C)CC3)nc(Sc3ccc(NC(=O)C4CC4)cc3)n2)n[nH]1 [Tozasertib] (partner 0.1 µM)
Outline: (§1)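 Nuclei were stained with Hoechst during a one-step fixation (final 0.05% Triton X-100, 1% formaldehyde, 1 ug/ml Hoechst) carried out 5 days after dosing, then counted on 4× images. The cells, lung cancer lines in 1536-well plates, had been dosed by pin tool the day after seeding with one drug alone or a fixed anchor-drug dose plus five library-drug doses (not always all listed) in √10 steps. Relative viability is the nuclei count in treated wells divided by that in vehicle wells, and each value is the median of duplicate plates.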

Bemcentinib + Linsitinib = compound: Nc1nc(Nc2ccc3c(c2)CC[C@@H](N2CCCC2)CC3)nn1-c1cc2c(nn1)-c1ccccc1CCC2 [Bemcentinib] + C[C@]1(O)C[C@@H](c2nc(-c3ccc4ccc(-c5ccccc5)nc4c3)c3c(N)nccn32)C1 [Linsitinib] (partner 1 µM)
Outline: as §1

Axitinib + OSI-027 = compound: CNC(=O)c1ccccc1Sc1ccc2c(/C=C/c3ccccn3)n[nH]c2c1 [Axitinib] + COc1cccc2cc(-c3nc([C@H]4CC[C@H](C(=O)O)CC4)n4ncnc(N)c34)[nH]c12 [OSI-027] (partner 0.5 µM)
Outline: as §1

Bemcentinib + Decitabine = compound: Nc1nc(Nc2ccc3c(c2)CC[C@@H](N2CCCC2)CC3)nn1-c1cc2c(nn1)-c1ccccc1CCC2 [Bemcentinib] + Nc1ncn([C@H]2C[C@H](O)[C@@H](CO)O2)c(=O)n1 [Decitabine] (partner 2 µM)
Outline: as §1

Row | Cell Line | relative viability ([1]; first compound 1 µM) | relative viability ([1]; first compound 3.162 µM) | relative viability ([1]; first compound 10 µM) | relative viability ([1]; first compound 31.62 µM) | relative viability ([1]; first compound 100 µM) | relative viability (Bemcentinib + Linsitinib; first compound 0.04 µM) | relative viability (Bemcentinib + Linsitinib; first compound 0.1265 µM) | relative viability (Bemcentinib + Linsitinib; first compound 0.4 µM) | relative viability (Bemcentinib + Linsitinib; first compound 1.265 µM) | relative viability (Bemcentinib + Linsitinib; first compound 4 µM) | relative viability (Axitinib + OSI-027; first compound 0.005 µM) | relative viability (Axitinib + OSI-027; first compound 0.01581 µM) | relative viability (Axitinib + OSI-027; first compound 0.05 µM) | relative viability (Axitinib + OSI-027; first compound 0.1581 µM) | relative viability (Axitinib + OSI-027; first compound 0.5 µM) | relative viability (Bemcentinib + Decitabine; first compound 0.04 µM) | relative viability (Bemcentinib + Decitabine; first compound 0.1265 µM) | relative viability (Bemcentinib + Decitabine; first compound 0.4 µM) | relative viability (Bemcentinib + Decitabine; first compound 1.265 µM) | relative viability (Bemcentinib + Decitabine; first compound 4 µM)
1 | SK-MES-1 | 0.805 | 0.749 | 0.613 | 0.392 | 0.404 | 1.18 | 1.16 | 1.15 | 1.32 | 1.12 | 0.748 | 0.647 | 0.638 | 0.642 | 0.854 | 0.363 | 0.361 | 0.451 | 0.315 | 0.379
2 | NCI-H1648 | 0.592 | 0.513 | 0.393 | 0.47 | 0.421 | – | – | – | – | – | 0.258 | 0.238 | – | 0.245 | 0.249 | 0.411 | 0.413 | 0.483 | 0.569 | 0.43
3 | PC-3 [JPC-3] | 0.943 | 0.896 | 0.629 | 0.635 | 0.704 | 0.967 | 0.999 | 0.902 | 0.957 | 1.07 | 0.762 | 0.668 | 0.809 | 0.72 | 0.915 | 0.773 | 0.897 | 0.804 | 0.822 | 0.804
4 | NCI-H1666 | 0.606 | 0.596 | 0.474 | 0.507 | 0.515 | 0.932 | 0.872 | 0.958 | 0.972 | 0.707 | 1.01 | 0.86 | 0.88 | 0.825 | 0.855 | 0.618 | 0.872 | 0.722 | 0.592 | 0.632
5 | IA-LM | – | – | – | – | – | 0.661 | 0.962 | 0.654 | 0.697 | 0.713 | – | – | – | – | – | – | – | – | – | –
6 | HCC-78 | 0.56 | 0.543 | 0.423 | 0.35 | 0.404 | 0.572 | 0.56 | 0.49 | 0.634 | 0.806 | 0.365 | 0.335 | 0.358 | 0.362 | 0.356 | 0.691 | 0.655 | 0.636 | 0.655 | 0.637
7 | HCC-366 | 0.0661 | 0.0593 | 0.0876 | – | 0.0623 | 0.612 | 0.921 | 1.14 | 0.604 | 0.881 | 0.979 | 0.895 | 1.09 | 1.02 | 0.939 | 0.335 | 0.362 | 0.395 | 0.369 | 0.341
8 | NCI-H520 | 0.446 | 0.438 | 0.364 | – | 0.421 | 0.85 | 0.982 | 1.08 | 1.01 | 1.18 | 0.234 | 0.218 | 0.216 | – | 0.24 | 0.515 | 0.593 | 0.511 | 0.499 | 0.512
9 | NCI-H1355 | 0.471 | 0.389 | 0.328 | 0.302 | 0.294 | 0.858 | 0.98 | 0.848 | 0.903 | 0.99 | 0.42 | 0.384 | 0.492 | 0.432 | 0.492 | 0.341 | 0.35 | 0.376 | 0.347 | 0.431
10 | SW 1573 | 0.184 | 0.165 | 0.177 | 0.204 | 0.174 | 0.884 | 0.753 | 0.855 | 0.966 | 0.835 | 0.592 | 0.592 | 0.68 | 0.508 | 0.724 | 0.427 | 0.55 | 0.595 | 0.544 | 0.468
11 | COR-L 105 | 0.346 | 0.358 | 0.368 | 0.31 | 0.316 | 0.975 | 0.943 | 1.15 | 1.02 | 0.871 | 0.762 | 0.509 | 0.681 | 0.722 | 0.725 | 0.593 | 0.721 | 0.678 | 0.67 | 0.667
12 | COR-L23 | 0.168 | 0.15 | 0.152 | – | 0.13 | 1.04 | 0.935 | 1.2 | 1.17 | 0.844 | 0.88 | 0.775 | 0.804 | 0.75 | 1.19 | 0.465 | 0.467 | 0.481 | 0.472 | 0.456
13 | NCI-H322M | 0.51 | 0.483 | 0.493 | 0.449 | 0.486 | 0.994 | 0.978 | 0.9 | 1.01 | 1.04 | 0.569 | 0.575 | 0.546 | 0.536 | 0.601 | 0.686 | 0.731 | 0.716 | 0.841 | 0.704
14 | NCI-H2347 | 0.614 | 0.543 | 0.382 | 0.412 | 0.501 | 0.959 | 1.04 | 0.943 | 0.951 | 0.871 | 0.482 | 0.407 | 0.422 | 0.423 | 0.51 | 0.653 | 0.573 | 0.665 | 0.678 | 0.639
